{"source": "patent US9188580B2", "about": "“Gene reporter assay, kit, and cells for determining the presence and/or the level of a molecule that activates signal transduction activity of a cell surface protein” (LE CENTRE NATIONALE DE LA RECHERCHE SCIENTIFIQUE, priority 2002, dated 2015)", "key": {"PIL5 cells [1]": {"test_system": "PIL5 cells", "assay": "Luciferase gene reporter assay for Type I interferon: IFN sensitivity of PIL5 cells treated with anti-mitotic agent, frozen and thawed", "format": "cell-based, human", "procedure": "• 1. Remove protective cover from the sample preparation micro-plate (Plate A). • 2. Add 100 μl of the diluent (RPMI 1640 medium without serum) to wells A1 through A6 and B1 through B6 of the sample preparation plate (Plate A). • 3. Add 100 μl of the interferon (IFN) reference preparation to wells A1 and B1 of Plate A containing 100 μl of diluent. • 4. Carry out serial two-fold dilutions of the IFN reference preparation in Plate A from wells A1 and B1 through wells A6 and B6 using a multi-channel micro-pipette. Sample preparation • 1. Add 100 μl of the diluent to the wells of the sample preparation plate (Plate A) where required. • 2. Dilute samples to be tested if the estimated IFN titer of the samples is greater than 100 IU/ml. • 3. Dilute samples appropriately in the sample preparation micro-plate (Plate A) Assay Procedure • 1. Rapidly thaw the 96-well PIL5 assay micro-plate (Plate B) on a flat surface with the cover uppermost. A water-bath set at 37° C. can be used for convenience. • 2. Dry protective cover with a paper hand towel, taking care to maintain the label uppermost. • 3. Carefully remove protective cover from the PIL5 assay micro-plate (Plate B) while maintaining the cover uppermost. • 4. Add 75 μl of each of the serial two-fold dilutions of the reference preparation to wells A1 and B1 through wells A6 and B6 of the PIL5 assay micro-plate (Plate B) using a multi-channel micro-pipette. • 5. Add 75 μl of each undiluted or appropriately diluted sample to the PIL assay micro-plate […]. • 6. Incubate the PIL5 assay micro-plate (Plate B) overnight at 37° C. in an atmosphere of 5% CO2 in air. A CO2 incubator can be used for convenience. • 7. […] Determine the luminescence of the samples using a micro-plate luminometer (LUMICOUNT, Packard). […] Plot standard curve from the mean of the luminescence readings for each dilution of the IFN reference preparation calibrated against the NIH international reference standard for HuIFN-α (G-023-901-527) using Microsoft EXCEL. • 2. […]"}, "PIL5 cells [2]": {"test_system": "PIL5 cells", "assay": "Prevention of cell replication of PIL5 cells by anti-mitotic and pro-apoptotic agent", "format": "cell-based, human", "settings": "at the doses tested", "procedure": "Studies on the effects of a variety of parameters, i.e., concentration of vinblastine, time of treatment with vinblastine, fetal bovine serum (FBS) concentration, glycerol concentration in the presence or absence of DMSO, SMSO concentration, cell density, on interferon sensitivity of frozen cells were conducted to determine optimal conditions. It may not be apparent from the results shown in FIG. 12 why vinblastine instead of 5-FU was chosen as the more preferred anti-mitotic and pro-apoptotic agent for treatment of PIL5 cells prior to freezing."}}, "data": [{"molecule": "O=c1[nH]cc(F)c(=O)[nH]1", "note": "[5-FU, 5-fluorouracil]", "values": [{"measurement": "maintaining interferon sensitivity of frozen PIL5 cells", "setting": "PIL5 cells [1]; treatment prior to freezing, compared with vinblastine, FIG. 12", "value": "superior to vinblastine"}, {"measurement": "preventing cell replication", "setting": "PIL5 cells [2]", "value": "not found to be sufficiently effective"}]}, {"molecule": "C[S+](C)[O-]", "note": "[DMSO, dimethyl sulfoxide]", "values": [{"measurement": "protection of cells frozen at −20° C. and effect on sensitivity to IFN", "setting": "PIL5 cells [1]; no special freezing or thawing techniques, FIG. 11", "value": "without adversely affecting their sensitivity to IFN"}]}, {"molecule": "CC[C@]1(O)C[C@@H]2CN(CCc3c([nH]c4ccccc34)[C@@](C(=O)OC)(c3cc4c(cc3OC)N(C)[C@H]3[C@@](O)(C(=O)OC)[C@H](OC(C)=O)[C@]5(CC)C=CCN6CC[C@]43[C@@H]65)C2)C1", "note": "[vinblastine]", "values": [{"measurement": "IFN sensitivity of PIL5 cells after treatment and freezing", "setting": "PIL5 cells [1]; 100 μM vinblastine, 1.0 hour at 37° C., one month at −20° C., FIG. 11", "value": "retain full IFN sensitivity"}]}]}
